Measurements as given in patent US20240416143A1, “PHOTONIC ANTIMICROBIAL WOUND SURFACE DRESSING” (The General Hospital Corporation, priority 2021, published 2024).

Legend:
[1] = test system: S. aureus MN8; conditions: S. aureus MN8 cultured aerobically vs anaerobically; cited from earlier work
[2] = test system: E. coli biofilm; assay: Photoinactivation of 48-hour in vitro biofilms by adjuvant/antibiotic + antimicrobial blue light; type: cell-based, Escherichia coli
Experimental: The bacterial suspension was grown in a shaking incubator overnight in BHI broth. Cells were collected by centrifugation at 4,000 rpm for 5 minutes and suspended in PBS at a density of 10^6 CFU/mL. Then, the biofilms were grown for 48 hours (unless otherwise specified) in 96-well microtiter plates as described previously [Ref. 27], with a renewal of the media every 24 hours. Following the 48-hour biofilm growth, fresh 200 μL of PBS with or without menadione in different concentrations were added to the wells and the biofilms were incubated in the dark at 25° C. for 1 hour: 0, 0.5, 1, and 2 μg/mL for MRSA USA300, AF0001, IQ0064; 0, 1, 10, 30 and 50 μg/mL for P. aeruginosa PA01; and 0, 100, and 150 μg/mL for E. coli ATCC 25922. After that, the control and the menadione-treated biofilms were maintained without irradiation (“menadione/dark”). Simultaneously, the aBL was delivered to the other biofilm groups testing different power densities (50, 30, 15, and 10 mW/cm^2) while keeping the same radiant exposure of 250 J/cm^2. After the light exposure, the biofilms were carefully washed two times with PBS and 200 μL of PBS was added to each well. Then, the bacterial biofilms in each well were harvested by scratching with a sterile pipette tip and three wells of each group were pooled together in a 1.5 mL microcentrifuge tube. The total volume obtained, 600 μL (3 wells), was sonicated using a Branson 2510 Water Bath Sonicator (Marshall Scientific, LLC) for 5 minutes and the CFU was determined by 10-fold serial dilutions in PBS on BHI agar plates. CFU was counted after overnight incubation at 37° C. Experiments were performed in triplicate.
A bacterial suspension was grown in a shaking incubator overnight in BHI broth. Cells were collected by centrifugation at 4,000 rpm for 5 minutes and suspended in PBS at a density of 10^6 CFU/mL. Then, the biofilms were grown for 48 hours in 96-well microtiter plates with a renewal of the media every 24 hours. Following the 48-hour biofilm growth, fresh 200 μL of PBS with the tetracyclines minocycline, doxycycline, and demeclocycline in different concentrations were added to the wells and the biofilms were incubated in the dark at 25° C. for 1 hour: 0, 0.25, 0.5, and 1 μg/mL for minocycline; 0, 0.5, 1, and 2 μg/mL for doxycycline; and 0, 0.5, 1, and 2 for demeclocycline. After that, the control and the tetracycline-treated biofilms were maintained without irradiation (“menadione/dark”). […] The total volume obtained, 600 μL (3 wells), was sonicated using a Branson 2510 Water Bath Sonicator (Marshall Scientific, LLC) for 5 minutes and the CFU/mL was determined by 10-fold serial dilutions in PBS on BHI agar plates. CFU was counted after overnight incubation at 37° C.

[3] = test system: MRSA biofilms in ex-vivo porcine skin; assay: Photoinactivation of biofilms in ex vivo porcine partial thickness wounds by menadione + aBL; type: cell-based, methicillin-resistant Staphylococcus aureus
Experimental: Skin was handled and sanitized with 70% isopropanol solution after hair shaving. The explants and inner wounds were created using a 12 mm and 4 mm biopsy punches respectively. The explants were placed in 12 wells plates using a (8 μm pore) inserts (Corning™ Falcon™). 1 mL of DMEM media was added to each well in the plate before the insert. After 24 hours, the inner wounds in the explants were inoculated with 20 μL of 10^8 CFU/mL of bacterial solution. After that, the explants were incubated at 37° C. and 5% CO2 for 48 hours to ensure the growth of a mature bacterial biofilm. The inner wounds of the explants were replenished daily with fresh BHI media to ensure that the wounds are hydrated.
48 hours following the inoculation, mature monobacterial biofilms of MRSA, P. aeruginosa, and E. coli were obtained with 8.00 log10 CFU/g per wound bed on each explant. MRSA biofilms in explant were reduced by 0.81 log10 CFU/g after the treatment of just aBL 250 J/cm^2 (50 mW/cm^2). However, MRSA biofilms in ex-vivo porcine skin were reduced by up to 4.18 log10 CFU/g when treated with aBL combined with menadione (200 μg/mL). For MRSA biofilms, the log reduction of mature monobacterial biofilm increased as the menadione concentration increased (see FIGS. 16A-16B). […]

[4] = ROS probes (DCF-DA, SOSG, HPF) in the absence of bacteria
Experimental: 1.2.9.1 General ROS measured by […] (DCFH-DA) assay: DCF-DA was purchased from Thermofisher. […] The production of ROS by menadione when combined with blue light was measured in the presence and absence of bacteria. The bacteria (MRSA) was grown in BHI broth medium with shaking overnight. Cells were collected by centrifugation at 4,000 rpm for 5 minutes and resuspended in PBS in the stationary growth phase culture of 1×10^8 CFU/mL. The microbial suspension was transferred to a 35×12-mm dish, mixed with 10 μg/mL of menadione, and stained with 10 μM DCFH-DA solution per the manufacturer's instruction. The solutions (with and without bacteria) were irradiated with the blue light at 50 mW/cm^2 and the samples were collected every 15 minutes to be analyzed by Microplate Spectrofluorometer (SPECTRAmax®, Molecular Devices, USA) at λex=495 nm and λem=525 nm. The control and the menadione/dark groups were generated under the same conditions without irradiation.
To do so, the production of ROS by menadione combined with blue light was measured by different ROS probes, DCF-DA, SOSG and HPF, in the presence and absence of MRSA. […] Oxidation of these probes can be detected by monitoring the increasing of fluorescence signals. […]

In the case of CC1=CC(=O)c2ccccc2C1=O [menadione, 2-methyl-1,4-naphthoquinone], the “bactericidal activity, aerobic vs anaerobic culture” value [1] is listed as 4 fold, the “biofilm reduction by menadione without irradiation” value ([2]; 48 h biofilm, dark) is listed as less than 1 log killing and the “biofilm eradicated by menadione plus aBL” value ([2]; 48 h biofilm, 100 μg/mL menadione + aBL 250 J/cm^2 (50 mW/cm^2)) is listed as 4.8 log10 CFU/mL. For the same compound, the “enhancement of killing in comparison with aBL alone” value ([2]; 48 h in vitro biofilm, menadione + aBL) was 1 log-fold, the “biofilm reduction by menadione in the absence of aBL” value ([3]; ex vivo porcine explants, no aBL) was “no effect of biofilm reduction” and the “biofilm reduction by aBL combined with menadione” value ([3]; ex vivo porcine wound, menadione 200 μg/mL + aBL 250 J/cm^2 (50 mW/cm^2)) was “up to 4.18 log10 CFU/g”. For the same compound, the “fluorescence signal of ROS probes, menadione exposed to blue light” value ([4]; 405 nm, DCF-DA, SOSG, HPF) was “higher fluorescence signal” and the “fluorescence signal of ROS probes, menadione dark group” value ([4]; no irradiation) was “negligible”.
